In US10822317B2, “Methods and compositions for wound healing” (QBiotics Limited, priority 2013, dated 2020):

System: human PBMCs
Experiment: Gene expression (Illumina BeadChip) in human PBMCs
Assay type: cell-based
Conditions: 30 ng/mL
Experimental: Human peripheral blood mononuclear cells (PBMCs) were isolated by Ficoll-Paque sedimentation of heparinised blood from a human donor, and cultured in RPMI-1640 10% FCS. Following treatment with Compound 1 at 30 ng/mL, the monolayer was washed once with phosphate buffered saline (PBS) and the cells harvested with sterile scrapers and stored as pellets at −80° C.
RNA was extracted from 30 mg of frozen tumour or 1×10^7 cells using the QiagenRNeasyPlus Mini Kit, according to manufacturer's instructions, then quantitated with a NanoDrop instrument and integrity confirmed on denaturing agarose gels bearing a 1 kb DNA marker and stained with ethidium bromide.
Approximately 500 ng of total unlabelled RNA was adjusted to a final volume of 11 μL with nuclease-free water. The RNA was incubated with 9 μL of the reverse transcriptase master mix (1 μL of T7 Oligo (dT) Primer, 2 μL of 10× first strand buffer, 4 μL of dNTP mix, 1 μL of RNase inhibitor and 1 μL of ArrayScript) at 42° C. for 2 hr. This was followed by the second strand cDNA synthesis step which involved a further incubation at 16° C. for 2 hr with 80 µL of the second strand master mix (63 μL nuclease-free water, 10 μL 10× second strand buffer, 4 μL dNTP mix, […] and 1 μL RNase H). The cDNA was purified by filtering through a cDNA Filter Cartridge with 250 μL of cDNA binding buffer and washing with 500 μL of the wash buffer provided in the kit. Purified cDNA was eluted with 20 μL of 55° C. nuclease-free water. Each cDNA sample was incubated with 7.5 μL of the IVT master mix (2.5 μL of T7 10× reaction buffer, 2.5 μL of T7 enzyme mix and 2.5 μL biotin-NTP mix) at 37° C. for 16 hr. The reaction was stopped with the addition of 75 μL of nuclease-free water to each cRNA sample. The biotinylated, amplified RNA was purified by filtering the cRNA samples through cRNA Filter Cartridges with 350 μL of cRNA binding buffer and 250 μL of 100% ethanol mixed together prior to loading onto the filters. The cRNA filter cartridges with attached RNA were then washed with 650 μL of wash buffer before eluting purified cRNA with 200 μL of 55° C. nuclease-free water.
The cRNA samples were heated at 65° C. for 5 min and collected by pulse centrifugation. After heating at 65 degrees for 5 min, approximately 750 ng of the cRNA sample was aliquoted into separate tubes to which were added ˜5 μL of RNase-free water and 10 μL of Hyb Mix. Approximately 15 μL of the prepared cRNA mix was loaded onto the Illumina Expression BeadChips. Subsequent steps of hybridisation and washing were carried out according to the Whole-Genome Gene Expression Direct Hybridization Assay Guide supplied by Illumina.
The Human HT-12 v4 Expression BeadChips cover more than 47,000 transcripts and known splice variants across the human transcriptome. The MouseRef-8 v2.0 Expression BeadChips cover approximately 25,600 well-annotated RefSeq (Reference Sequence) transcripts, comprising over 19,000 unique genes.
BeadChips were read by the iScan System, and transferred via GenomeStudio into GeneSpring GX v12.5 (Agilent Technologies, Santa Clara, Calif., USA). The expression values were normalized using quantile normalization with default settings. The entities were filtered based on the detection score calculated by GenomeStudio where p≤0.05 was considered significant.
Human peripheral blood mononuclear cells (PBMCs) are rich in lymphocytes and macrophage precursors (monocytes) involved in the production of cytokines and tissue remodelling enzymes relevant to the wound healing process. […] It should therefore be noted that the genes shown in Table 14 illustrate the range of relevant molecules regulated by Compound 1 in a mixed lymphoid population in vitro, without specifying the order of tissue-specific expression in vivo.

CC=C(C)C(=O)OC1C(C)C2(O)C(C3OC3(CO)C(O)C3(O)C(=O)C(C)=CC32)C2C(C)(C)C12OC(=O)C(C)CC (centres unmarked) [Compound 1, 12-tigloyl-13-(2-methylbutanoyl)-6,7-epoxy-4,5,9,12,13,20-hexahydroxy-1-tigliaen-3-one]
CCL3L1: Direction of regulation (4 h): Up
CCL7: Direction of regulation (4 h): Up
CXCL2: Direction of regulation (4 h): Up
GM-CSF: Direction of regulation (4 h): Up
HBEGF: Direction of regulation (4 h): Up
KLF10: Direction of regulation (4 h): Up
MMP1: Direction of regulation (4 h): Up
MMP7: Direction of regulation (4 h): Up
MMP10: Direction of regulation (4 h): Up
MMP19: Direction of regulation (4 h): Up
TGM3: Direction of regulation (4 h): Up
THBS1: Direction of regulation (4 h): Down
THBS1: Fold change in expression (4 h, Down): −47.8 fold
CCL3L1: Fold change in expression (4 h, Up): 5.3 fold
CCL7: Fold change in expression (4 h, Up): 9.4 fold
CXCL2: Fold change in expression (4 h, Up): 3.5 fold
GM-CSF: Fold change in expression (4 h, Up): 4.3 fold
HBEGF: Fold change in expression (4 h, Up): 2.7 fold
KLF10: Fold change in expression (4 h, Up): 5.9 fold
MMP1: Fold change in expression (4 h, Up): 3.1 fold
MMP7: Fold change in expression (4 h, Up): 3.5 fold
MMP10: Fold change in expression (4 h, Up): 3.2 fold
MMP19: Fold change in expression (4 h, Up): 11.6 fold
TGM3: Fold change in expression (4 h, Up): 2.3 fold
CCL1: Direction of regulation (24 h): Up
CCL3: Direction of regulation (24 h): Up
CCL3L1: Direction of regulation (24 h): Up
CCL7: Direction of regulation (24 h): Up
CSF1: Direction of regulation (24 h): Up
CXCL1: Direction of regulation (24 h): Up
CXCL2: Direction of regulation (24 h): Up
CXCL5: Direction of regulation (24 h): Up
CXCL7: Direction of regulation (24 h): Up
CXCL13: Direction of regulation (24 h): Up
GM-CSF: Direction of regulation (24 h): Up
HBEGF: Direction of regulation (24 h): Up
IL1α: Direction of regulation (24 h): Up
IL1β: Direction of regulation (24 h): Up
IL6: Direction of regulation (24 h): Up
IL10: Direction of regulation (24 h): Up
IL24: Direction of regulation (24 h): Up
KLF10: Direction of regulation (24 h): Up
MMP1: Direction of regulation (24 h): Up
MMP7: Direction of regulation (24 h): Up
MMP9: Direction of regulation (24 h): Down
MMP10: Direction of regulation (24 h): Up
MMP19: Direction of regulation (24 h): Up
TGM2: Direction of regulation (24 h): Up
TGM3: Direction of regulation (24 h): Up
TGM5: Direction of regulation (24 h): Down
THBS1: Direction of regulation (24 h): Down
TIMP2: Direction of regulation (24 h): Down
MMP9: Fold change in expression (24 h, Down): −22.9 fold
TGM5: Fold change in expression (24 h, Down): −3.3 fold
THBS1: Fold change in expression (24 h, Down): −101.5 fold
TIMP2: Fold change in expression (24 h, Down): −10.9 fold
CCL1: Fold change in expression (24 h, Up): 39.8 fold
CCL3: Fold change in expression (24 h, Up): 56.9 fold
CCL3L1: Fold change in expression (24 h, Up): 72.3 fold
CCL7: Fold change in expression (24 h, Up): 54.5 fold
CSF1: Fold change in expression (24 h, Up): 5.1 fold
CXCL1: Fold change in expression (24 h, Up): 15.5 fold
CXCL2: Fold change in expression (24 h, Up): 73.5 fold
CXCL5: Fold change in expression (24 h, Up): 8.1 fold
CXCL7: Fold change in expression (24 h, Up): 17.5 fold
CXCL13: Fold change in expression (24 h, Up): 2.2 fold
GM-CSF: Fold change in expression (24 h, Up): 34.6 fold
HBEGF: Fold change in expression (24 h, Up): 5.1 fold
IL1α: Fold change in expression (24 h, Up): 14.6 fold
IL1β: Fold change in expression (24 h, Up): 15.4 fold
IL6: Fold change in expression (24 h, Up): 33.1 fold
IL10: Fold change in expression (24 h, Up): 2.1 fold
IL24: Fold change in expression (24 h, Up): 4.6 fold
KLF10: Fold change in expression (24 h, Up): 9.3 fold
MMP1: Fold change in expression (24 h, Up): 4.2 fold
MMP7: Fold change in expression (24 h, Up): 7.4 fold
MMP10: Fold change in expression (24 h, Up): 52 fold
MMP19: Fold change in expression (24 h, Up): 2.6 fold
TGM2: Fold change in expression (24 h, Up): 12.2 fold
TGM3: Fold change in expression (24 h, Up): 28.4 fold
CCL1: Direction of regulation (96 h): Up
CCL3L1: Direction of regulation (96 h): Up
CCL7: Direction of regulation (96 h): Up
CXCL5: Direction of regulation (96 h): Up
CXCL7: Direction of regulation (96 h): Up
CXCL13: Direction of regulation (96 h): Up
GM-CSF: Direction of regulation (96 h): Up
MMP7: Direction of regulation (96 h): Up
TGM2: Direction of regulation (96 h): Up
CCL1: Fold change in expression (96 h, Up): 42.6 fold
CCL3L1: Fold change in expression (96 h, Up): 4.2 fold
CCL7: Fold change in expression (96 h, Up): 4.8 fold
CXCL5: Fold change in expression (96 h, Up): 15.1 fold
CXCL7: Fold change in expression (96 h, Up): 37.4 fold
CXCL13: Fold change in expression (96 h, Up): 23.5 fold
GM-CSF: Fold change in expression (96 h, Up): 6 fold
MMP7: Fold change in expression (96 h, Up): 117.3 fold
TGM2: Fold change in expression (96 h, Up): 4.4 fold
